The results in this text go back to patent US20230250108A1, “TETRAHYDROISOQUINOLINE COMPOUNDS AND USE THEREOF” (JIANGSU SIMCERE PHARMACEUTICAL CO., LTD., priority 2020, published 2023).

Series [1] is described as follows: Hepatocellular metabolic stability test, human hepatocytes.
Excerpt: Experimental materials: Human hepatocytes were purchased from Biopredic; mouse hepatocytes were purchased from BioIVT; acetonitrile and methanol were purchased from Merck & Co., Inc.; AOPI dyes were purchased from Nexcelom; dexamethasone was purchased from NIFDC; DMSO was purchased from Beijing Solarbio Science & Technology Co., Ltd.; DPBS (10×), GlutaMAX™-1 (100×) and recombinant human insulin were purchased form Gibco by Life Technologies; fetal bovine serum was purchased from Corning; formic acid was purchased from DIKMAPURE; Isotonic Percoll was purchased from GE Healthcare; alprazolam was purchased from Supelco; caffeine was purchased from ChromaDex.inc; and HEPES, tolbutamide and Williams' Medium E were purchased from Sigma.
The powder of a test substance was formulated with DMSO into a stock solution with a high concentration, which was diluted to a working solution of 100 μM with acetonitrile prior to use. The final concentration of the test substance was 1 μM.
49.5 mL of Williams'E Medium and 0.5 mL of GlutaMAX were mixed as an incubation media. Hepatocyte thawing media and incubation media were placed in a 37° C. water-bath and pre-heated for at least 15 minutes prior to use. A tube of hepatocytes stored at an ultra-low temperature was taken and the hepatocytes were ensured to be at a frozen state at a low temperature prior to thawing. The hepatocytes were rapidly placed in a 37° C. water-bath and gently shaken until all the ice crystals were dispersed, and then after 70% ethanol was sprayed, the hepatocytes were transferred to a biosafety cabinet. The content of the tube was poured into a centrifugal tube containing 50 mL of thawing media and centrifuged at 100 g for 10 minutes. After centrifugation, the thawing media was aspirated, and a sufficient amount of incubation media was added to obtain a cell suspension with a cell density of about 1.5×10^6 cells/mL. The hepatocytes were counted, and the viable cell density was determined using Cellometer Vision, and the survival rate of the hepatocytes must be higher than 75%. The hepatocyte suspension was diluted by using the incubation media to a viable cell density of 0.5×10^6 viable cells/mL.
247.5 μL of viable cell (human hepatocytes or mouse hepatocytes) suspension or media were transferred into a 96-well deep-well plate, and the deep-well plate was placed in a vortex incubator and pre-heated for 10 minutes. Incubation of all the samples was performed in parallel duplicate. Test substance (2.5 μL, 100 μM) was added into each well to start the reaction and the deep-well plate was placed in the vortex incubator again. The samples were incubated, and 25 μL of the suspension was taken at 0, 15, 30, 60, 90 and 120 minutes, respectively. 125 μL of acetonitrile containing internal standard (100 nM alprazolam, 200 nM caffeine, and 100 nM tolbutamide) was added to terminate the reaction. The mixture was vortexed for 10 minutes and centrifuged at 3220 g, 4° C. for 30 minutes. After centrifugation, 100 μL of the supernatant was transferred into the loading plate and 150 μL of pure water was added and mixed uniformly for LC-MS/MS analysis.
All the data calculation was performed by the Microsoft Excel software. The peak area was detected by extracting the ion chromatogram. The in vitro half-life (t1/2) of the parent drug was detected by performing linear fitting of the natural logarithm of elimination percent of the parent drug and time.
The in vitro half-life (t1/2) was calculated by means of the slope:
The nature of series [2]: Pharmacokinetic experiment in mice. Format: in vivo, CB17-SCID mice. The source says: Experimental materials: GB17-SCID mice were purchased from Beijing Vital River Laboratory Animal Technology Co., Ltd.; DMSO, HP-β-CD (Hydroxypropyl-β-cyclodextrin), MC (methyl cellulose) and acetonitrile were purchased from Merck & Co., Inc. (USA), and K2EDTA anticoagulation tubes were purchased from Jiangsu Xinkang Medical Instrument Co., Ltd.
Experiment method: Six female CB17-SCID mice (20-30 g, 4-6 weeks) were randomized into 2 groups, 3 mice/group. Group 1 was given compound 002 via tail vein injection at a dose of 2 mg/kg, and the vehicle was 5% of DMSO+95% of 10% HP-β-CD aqueous solution; and group 2 was given compound 002 orally at a dose of 10 mg/kg, and the vehicle was 0.5% MC aqueous solution. Prior to the experiment, the animals were given food and water as usual. At pre-dose and 0.083 (only for the vein injection group), 0.25, 0.5, 1, 2, 4, 6, 8 and 24 h post-dose, blood was sampled from the mice in each group from the vein. The whole blood sample collected was placed in a K2EDTA anticoagulation tube and centrifuged for 5 min (4000 rpm, 4° C.) and then the plasma was taken for detection.
10 μL of the mouse plasma sample was taken and 150 μL of acetonitrile solvent (wherein internal standard compound was contained) was added to precipitate proteins. After the mixture was vortexed for 0.5 min, centrifugation (4700 rpm, 4° C.) was performed for 15 min. The supernatant was diluted 2-fold with water containing 0.05% (v/v) formic acid and 3 μL was injected into the LC-MS/MS system (AB Sciex Triple Quad 6500+) for the quantitative detection. The concentrations of the samples were determined with the present of plasma standard curve (linear range: 0.5-1000 ng/mL) of CB17-SCID mice and quality control samples. For the preparation of 10-fold diluted samples, 2 μL of mouse plasma sample was taken and 18 μL of blank plasma was added. After the mixture was vortexed for 0.5 min, 300 μL of acetonitrile solvent (wherein internal standard compound was contained) was added to precipitate proteins. The other processing steps were identical to those for the samples not diluted.

[3] abbreviates: female, CB17-SCID, mouse, plasma, 10 mg/kg, Mice PO (10 mpk).

The half-life is the time in which the quantity being followed falls by half. A lower half-life goes with rapid decline. A word on the AUC(0-t): it is the area under the concentration-time curve up to a stated or last time point. Broadly, the Cmax is the peak of the concentration-time curve. One may read the Tmax as the time from dosing to the highest level. In series [1], `CCN1CCN(C[C@@H](O)[C@@H]2Cc3ccccc3CN2)C(=O)c2ccc(C(=O)N3CCC4(CC3)CC(OC)C4)cc21.Cl` [Compound 002, 1-ethyl-4-((R)-2-hydroxy-2-((S)-1,2,3,4-tetrahydroisoquinolin-3-yl)ethyl)-8-(2-methoxy-7-azaspiro[3.5]nonane-7-carbonyl)-1,2,3,4-tetrahydro-5H-benzo[e][1,4]diazepin-5-one hydrochloride] gave a half-life at 1 μM of 252 min. Further, in series [2] (Mice IV (2 mpk)), the Cl_obs was determined as 61.1 ± 6.2 mL/min/kg. For the same compound, the F in series [2] (Mice PO (10 mpk)) came to 96.5 ± 20.5%. The half-life in series [2] (female, CB17-SCID, mouse, plasma, 2 mg/kg, Mice IV (2 mpk)) was 214 ± 33 min. In addition, in series [2] (female, CB17-SCID, mouse, plasma, 2 mg/kg, Mice IV (2 mpk), read-out: Vss—obs), the Vd amounted to 8.2 ± 0.6 L/kg. In series [2] (setting [3]), the AUC(0-t) was 2650 ± 563 ng·h/mL, the concentration peaked (Cmax) at 827 ± 79 ng/mL, the time to peak (Tmax) came out at 19.8 ± 8.4 min and the half-life was 161 ± 12 min.
